Literature values in US20020137787A1, “Prevention or treatment of complications related to non-insulin dependent diabetes mellitus or type 2 diabetes mellitus” (priority 2001, published 2002).
Where two headings read alike, the source gives them in different places.

Assays:
[1] = patients taking Clozapine

Row | Structure (SMILES) | effect on body weight [1] | effect on body weight (overweight depressed patients) | effects on blood glucose and lipid profiles (reported)
1 | CN1CCN(C2=Nc3cc(Cl)ccc3Nc3ccccc32)CC1 [Clozapine] | increased weight |  | 
2 | CNCCC(Oc1ccc(C(F)(F)F)cc1)c1ccccc1 (stereo not drawn) [Fluoxetine] |  | weight loss | positive effects
